Earlier results as cited in patent US20100292266A1, “Oxazolyl Piperidine Modulators of Fatty Acid Amide Hydrolase” (priority 2006, published 2010).

Tests used:
[1] = model of multiple sclerosis, Baker 2001; cited from earlier work
[2] = rats; Kathuria 2003; cited from earlier work
[3] = Kathuria 2003; cited from earlier work
[4] = rat; Kathuria 2003; cited from earlier work

Structure (SMILES) | spasticity in CREAE mice [1] | efficacy in zero plus maze model of anxiety [2] | analgesic efficacy in rat formalin test [3] | analgesic efficacy in rat hot plate test [4]
CCCCCCCCCCCCCCCCS(=O)(=O)F [AM374] | significantly reduce spasticity |  |  | 
NC(=O)c1cccc(-c2cccc(OC(=O)NC3CCCCC3)c2)c1 [URB-597] |  | efficacy | analgesic efficacy | analgesic efficacy
